Values of other authors in EP0839024B1, “MONENSIN FORMULATIONS” (Elli Lilly & Co.(NZ)Limited, priority 1995, dated 1997).

Key:
[1] = as indicated in EP 0,139,595 (monensin and its sodium salt) and US Patent 3,715,372 (lasalocid); cited from earlier work
[2] = Example 1 of EP 0,139,595: 250 g mycelium containing 10% monensin, 1250 cc propylene glycol, room temperature, 2 hours, ultrasound; cited from earlier work

SMILES	solubility in water [1]	monensin found in solution in propylene glycol [2] [%]
CC[C@@H](C(=O)[C@@H](C)[C@@H](O)[C@H](C)CCc1ccc(C)c(O)c1C(=O)O)[C@H]1O[C@](CC)([C@H]2CC[C@](O)(CC)[C@H](C)O2)C[C@@H]1C [lasalocid]	completely insoluble	–
CC[C@@]1([C@@H]2O[C@@H]([C@H]3O[C@@](O)(CO)[C@H](C)C[C@@H]3C)C[C@@H]2C)CC[C@H]([C@]2(C)CC[C@]3(C[C@H](O)[C@@H](C)[C@@H]([C@@H](C)[C@@H](OC)[C@H](C)C(=O)O)O3)O2)O1 [monensin]	–	50
